Laboratory results taken from publication PMC7337064, “Parsing the functional specificity of Siderocalin/Lipocalin 2/NGAL for siderophores and related small-molecule ligands” (Journal of Structural Biology: X, 2019).
“Also recorded” adds a separate entry of the source. Like-named read-outs stand apart in the source and are kept apart here.

How the values were obtained:
Scn(C87S/K125A) [1] = biological target: T1, Scn(C87S/K125A) (Homo sapiens, UniProt P80188, C107S/K145A); assay: FQ binding assay, Scn(C87S/K125A) mutant
T1 construct: made in house
T1 sequence (P80188 21-198 C107S/K145A): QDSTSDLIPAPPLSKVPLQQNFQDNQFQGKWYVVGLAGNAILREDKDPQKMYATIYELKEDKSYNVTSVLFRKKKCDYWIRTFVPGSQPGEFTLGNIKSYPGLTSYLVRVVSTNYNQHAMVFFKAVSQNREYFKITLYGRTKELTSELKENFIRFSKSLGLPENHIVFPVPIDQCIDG
Source text: (§1) Growing somewhat frustrated with our inability to fully ablate ligand binding by even fairly extensive mutation, we focused on alternate mutations involving key Pocket #1: K125A, K134A, and the combination. Both lysine side-chains contribute bracketing Coulombic, cation-π, and hydrophobic interactions to the CAM group in this calyx pocket (Fig. 1A). […] The observed < 40-fold affinity reductions were surprising, given the seemingly crucial interactions contributed by these two side-chains bracketing the key pocket.
(§2) Protein biochemistry and crystallography: Mutations were made as previously described ([Abergel et al., 2008], [Goetz et al., 2002]). All clones were confirmed by DNA sequencing. Scn proteins were expressed and purified as previously described ([Abergel et al., 2008], [Bundgaard et al., 1994], [Goetz et al., 2002]). YfiY was expressed and purified as previously described. All crystals were grown using hanging drop vapor diffusion at room temperature. […] Initial Scn structure phases were calculated from the 1L6M.pdb structure and optimized by rigid-body refinement using REFMAC5 ([Murshudov et al., 1997]), or by molecular replacement using 1L6M.pdb as the search model with PHASER ([McCoy et al., 2007]). […]

Scn(C87S/K134A) [2] = biological target: T2, Scn(C87S/K134A) (Homo sapiens, UniProt P80188, C107S/K154A); assay: FQ binding assay, Scn(C87S/K134A) mutant
T2 construct: made in house
T2 sequence (P80188 21-198 C107S/K154A): as the sequence (P80188 21-198 C107S/K145A) above, with A125K, K134A counted along it
Source text: as §1, §2

Scn(C87S/K125A) [3] = biological target: T1, Scn(C87S/K125A); assay: qualitative binding by co-crystallization (crystal color), Scn(C87S/K125A); conditions: color of complex crystals
Source text: as §1
(§3) Fig. 6 Effects of mutating proximal calyx-lining residues on ligand recognition. (A) Superpositions of the three Fe-ENT complexes in the crystallographic AU of the complex with the Scn(C87S/K125A) mutant are shown in a stereoview, oriented and styled as in Fig. 3C. […] (C) Superpositions of the three Fe-ENT complexes in the crystallographic AU of the complex with the Scn(C87S/K134A) mutant are shown in a stereoview. […]
(§4) Protein biochemistry and crystallography: Mutations were made as previously described ([Abergel et al., 2008], [Goetz et al., 2002]). […] Initial Scn structure phases were calculated from the 1L6M.pdb structure and optimized by rigid-body refinement using REFMAC5 ([Murshudov et al., 1997]), or by molecular replacement using 1L6M.pdb as the search model with PHASER ([McCoy et al., 2007]). […]

Scn(C87S/K134A) [4] = biological target: T2, Scn(C87S/K134A); assay: qualitative binding by co-crystallization (crystal color), Scn(C87S/K134A); conditions: color of complex crystals
Source text: as §1, §3, §4

Scn(C87S/K125A/K134A) = biological target: T3, Scn(C87S/K125A/K134A) (Homo sapiens, UniProt P80188, C107S/K145A/K154A); assay: crystallographic analysis and qualitative co-crystallization binding trials, Scn(C87S/K125A/K134A); conditions: crystals grown in the presence of Fe-ENT
T3 construct: made in house
T3 sequence (P80188 21-198 C107S/K145A/K154A): as the sequence (P80188 21-198 C107S/K145A) above, with K134A counted along it

Scn [5] = biological target: T4, Scn (Homo sapiens, UniProt P80188); conditions: ref Abergel et al., 2006a, cited from earlier work
T4 construct: made in house

Scn(C87S/W79A/R81A) = biological target: Scn(C87S/W79A/R81A); design: method as in Abergel et al., 2008; conditions: W79A/R81A mutation; ref Abergel et al., 2008; cited from earlier work
Scn(C87S/Y106F) = biological target: Scn(C87S/Y106F); design: method as in Abergel et al., 2008; conditions: Y106F mutation; ref Abergel et al., 2008; cited from earlier work
Scn [6] = biological target: Scn; design: method as in Li et al., 2015; conditions: ref Li et al., 2015; cited from earlier work
Scn [7] = biological target: T4, Scn; conditions: cited from earlier work; for binding to Scn, qualitative binding assays: ref Holmes et al., 2005
human Scn (C87S) = biological target: T5, human Scn (C87S) (Homo sapiens, UniProt P80188, C107S); assay: crystallographic test of candidate ligand binding in the Scn calyx
T5 construct: made in house
T5 sequence (P80188 21-198 C107S): as the sequence (P80188 21-198 C107S/K145A) above, with A125K counted along it
Source text: Pseudomonas aeruginosa is a Gram-negative γ-proteobacterium which can cause acute and chronic infections ranging from septicemia, urinary infections, wound colonization, and chronic lung colonization in cystic fibrosis patients ([Cornelis and Dingemans, 2013]). P. aeruginosa produces two chemically-distinct siderophores, pyoverdine (PVD) and PCH, with relatively high or low affinities for iron, respectively. […] The quite large PVD structure would also not be expected to fit within the Scn calyx, nor would the structure of PCH-chelated iron be expected to fit within the key binding pocket, due to tight steric constraints around the iron center imposed by K125 and K134. A preliminary crystal structure of a Scn/PCH complex (3U03.pdb) was deposited in the Protein Databank (PDB, ([Berman et al., 2000])) by a structural genomics consortium. […] First, using the deposited diffraction data, it was readily apparent that the PCH ligand as modeled sat in negative electron density in difference Fourier syntheses (Fig. 7A). Second, this particular crystal form of Scn usually contains three molecules in the asymmetric unit, though only two had been modeled in the deposited structure. Using the deposited diffraction data, we re-refined the structure (Table 2), successfully placing the third Scn molecule and improving refinement statistics: Rfree/Rwork values decreased from 0.303/0.269 (3U03.pdb) to 0.253/0.235 (Table 2).
Though hexadentate catecholate siderophores have much higher complexation constants, bidentate catecholamine hormones (e.g. norepinephrine, NE) are capable of chelating iron in 3:1 complexes, and can serve to promote bacterial growth, at least in vitro ([O'Donnell et al., 2006]). […] However, no co-crystal structure was or has been subsequently reported, and the observed crystal habit was distinct from the typical tetragonal forms observed for Scn (e.g., Fig. 6B, D, and F). […] In order to resolve this discrepancy, we undertook to directly determine the Fe-NE/Scn co-crystal structure. […]

P. aeruginosa = tested on: P. aeruginosa; design: method as in Correnti et al., 2011; conditions: in vitro; ref Correnti et al., 2011; cited from earlier work

**Q.** For `O=C(N[C@H]1COC(=O)[C@@H](NC(=O)c2cccc(O)c2O)COC(=O)[C@@H](NC(=O)c2cccc(O)c2O)COC1=O)c1cccc(O)c1O.[Fe]` [Fe-ENT], which Kd (Scn(C87S/K125A) [1]; FQ, huScn (K125A)) is on record?
**A.** 15 ± 3 nM

**Q.** What about the “affinity reduction versus wild-type Scn” value (Scn(C87S/K125A) [1]; K125A mutation) of the same molecule?
**A.** < 40 fold

**Q.** What about the Kd (Scn(C87S/K134A) [2]; FQ, huScn (K134A)) of the same molecule?
**A.** 10 ± 2 nM

**Q.** What about the “affinity reduction versus wild-type Scn” value (Scn(C87S/K134A) [2]; K134A mutation) of the same molecule?
**A.** < 40 fold

**Q.** What about the “qualitative binding by co-crystallization” value (Scn(C87S/K125A) [3]) of the same molecule?
**A.** binding qualitatively confirmed

**Q.** And the “qualitative binding by co-crystallization” value (Scn(C87S/K134A) [4])?
**A.** binding also qualitatively confirmed

**Q.** And the “ligand binding (crystal structure and co-crystallization trials)” value (Scn(C87S/K125A/K134A))?
**A.** lack of ligand binding; also recorded: fully ablating ligand binding

**Q.** What about the Kd (Scn [5]; wild-type Scn, Abergel et al., 2008, Goetz et al., 2002) of the same molecule?
**A.** 0.4 nM

**Q.** And the Kd (Scn(C87S/W79A/R81A))?
**A.** 71 nM

**Q.** What about the Kd (Scn(C87S/Y106F)) of the same molecule?
**A.** 20 nM

**Q.** And the “KD by ITC” value (Scn [6])?
**A.** micromolar

**Q.** Which “binding to Scn” value (Scn [7]; ref Correnti et al., 2012) does the source give for `O=C(O)c1ccc(O)c(O)c1` [3,4-DHBA] here?
**A.** do not bind

**Q.** With `NC[C@H](O)c1ccc(O)c(O)c1` [NE, norepinephrine] as the molecule, how does the “ligand electron density in difference Fourier syntheses” value (human Scn (C87S); co-crystallized with 2:1:1 2,3-DHBA:NE:iron complexes) read?
**A.** did not show difference features distinct from the previously-determined Scn:2,3-DHBA:iron complex structure

**Q.** What about the “ligand electron density in difference Fourier syntheses” value (human Scn (C87S); crystals grown with stoichiometric 3:1 NE:iron mixtures) of the same molecule?
**A.** did not show electron density features assignable to iron or ligand atoms

**Q.** For `CN1[C@@H]([C@H]2CSC(c3ccccc3O)=N2)SC[C@H]1C(=O)O` [PCH, pyochelin], which “ligand binding in calyx (re-refined crystal structure)” value (human Scn (C87S); re-refinement of 3U03.pdb diffraction data, under these crystallization conditions) is on record?
**A.** does not bind

**Q.** What about the “binding to Scn, qualitative binding assays” value (Scn [7]) of the same molecule?
**A.** does not appreciably bind

**Q.** Which Kd (Scn [5]; apo ligand (no iron)) does the source give for `O=C(N[C@H]1COC(=O)[C@@H](NC(=O)c2cccc(O)c2O)COC(=O)[C@@H](NC(=O)c2cccc(O)c2O)COC1=O)c1cccc(O)c1O` [apo-ENT, enterobactin/enterochelin] here?
**A.** 3.6 nM

**Q.** Which “binding to Scn, qualitative binding assays” value (Scn [7]) does the source give for pyoverdine [PVD] here?
**A.** does not appreciably bind

B1: Scn: glycoprotein Siderocalin, innate immune system protein with bacteriostatic activity (protein, UniProt P80188 21-198, looked up)
Neutrophil …: QDSTSDLIPAPPLSKVPLQQNFQDNQFQGKWYVVGLAGNAILREDKDPQKMYATIYELKEDKSYNVTSVLFRKKKCDYWIRTFVPGCQPGEFTLGNIKSYPGLTSYLVRVVSTNYNQHAMVFFKKVSQNREYFKITLYGRTKELTSELKENFIRFSKSLGLPENHIVFPVPIDQCIDG
**Q.** Which “growth arrest of P. aeruginosa” value (P. aeruginosa) does the source give for B1 here?
**A.** does not arrest the growth
